Experimental data from publication PMC12828543, “Preclinical drug screen identifies WEE1 inhibitor and vinca alkaloid as a combination treatment concept for Li-Fraumeni syndrome medulloblastoma” (iScience, 2025).
Like-named read-outs stand apart in the source and are kept apart here.

Key:
orthotopic GBM model = settings: cited from earlier work
UW228-2 [1] = test: Validation in established cell lines (0.1-10,000 nM, triplicates, 72 h, CellTiter-Glo 2.0); type: cell-based, human; settings: for IC50: UW228-2, metabolic activity; for Emax: UW228-2, validation, maximum effect, 0.1-10,000 nM, 72 h
Experimental: (§1) Following 72-hour exposure cell viability was measured using CellTiter-Glo 2.0 Assay (cat.no. G9241, Promega) and the Spark microplate reader (Tecan).
(§2) DSS3 (single drug screen and validation steps) and Emax (validation step only) were estimated based on four-parameter logistic curves.

SJ-GBM2 [2] = test: as above; type: cell-based, human; settings: for IC50: SJ-GBM2, metabolic activity; for Emax: validation, maximum effect, 0.1-10,000 nM, 72 h
Experimental: as §1, §2

[3] = test system: TP53mut cancer cell lines SJ-GBM2 and UW228-2; test: Drug combination screen (synergy scores, SynergyFinder+); type: cell-based, human; settings: TP53mut brain cancer cell lines
Experimental: Drugs were tested in combinations in vitro using TP53^mut cancer cell lines SJ-GBM2 and UW228-2. […] Cell metabolic activity was measured in the same way as in the single drug screen (3 technical replicates x min. 3 biological replicates for each condition).
(§3) In analysis of the results from PDO lines Synergy finder+ was used and growth curves were generated using R version 4.2.2 (package drc). Presented synergy scores are averages across 3 biological replicates (each with two technical replicates, from which a mean value was calculated).

[4] = test system: DKFZ-BT084 PDX (LFS-associated SHH-MB), orthotopic in NSG mice; test: In vivo drug testing in LFS SHH-MB PDX model; design: species or system mouse; settings: adavosertib 60 mg/kg p.o. 5 times/week, vincristine 0.5 mg/kg i.p. once weekly, 4 weeks
Experimental: Animal experiment permits (G-193/21 and G-135/23) were issued by the Regional Council in Karlsruhe. In in vivo drug treatment and in vivo target dependence experiments female NOD.Cg-Prkdc^scidIl2rg^tm1Wjl/SzJ (NSG) mice were used. Intracranial patient-derived xenograft (PDX) tumor cell injections were performed in 6-8-week old animals. Following LFS-associated SHH-MB PDX models were injected: DKFZ-BT084[86] (relapsed tumor), LFS_primary[78] (gift from Prof. Aurélie Ernst, treatment-naive) and HS231222 (newly-established model, treatment-naive). After tumor detection mice were randomly assigned into 4 treatment groups (4-5 animals/group) without blinding.
LFS_primary[78] (gift from Aurélie Ernst) and HS231222. […] The control group received treatment with solvents only.

[5] = test system: TP53mut SHH-MB patient-derived organoid B062-13315; test: Drug treatment assay in PDOs (72 h, CellTiter-Glo 3D); type: cell-based, human; settings: PDO B062-13315, single drug; for IC50: Homo sapiens
Experimental: (§4) Cells were treated with DMSO as negative control and with Staurosporine (10 μM) (BIO-CONNECT BV, cat.no. 62996-74-1) as positive control. Metabolic activity was measured 72h after drug treatment by adding 40 μL of CellTiter-Glo 3D cell viability assay (Promega, cat.no. G9683) to each well, shake for 5 minutes using the Multidrop Combi system dispenser and incubated at room temperature and in the dark for an additional 25 minutes. Thereafter, bioluminescence was measured using the CLARIOstarplus (BMG Labtech) plate reader. Results were normalized to DMSO negative controls (100% viability) and Staurosporine positive controls (0% viability).
as §3

[6] = test system: TP53mut SHH-MB patient-derived organoid MED113FH; test: as above; type: cell-based, human; settings: PDO MED113FH, single drug; for IC50: Homo sapiens
Experimental: as §4, §3

[7] = test system: TP53mut SHH-MB patient-derived organoid B062-008; test: as above; type: cell-based, human; settings: PDO B062-008, single drug; for IC50: Homo sapiens
Experimental: as §4, §3

UW228-2 [8] = test: WEE1 siRNA knockdown and vincristine, cell viability after 72 hours; type: cell-based; settings: Homo sapiens; UW228-2, 72 hours, vincristine 0.5 nM, compared to control siRNA
Experimental: (§5) SJ-GBM2 and UW228-2 cells were transfected with ON-TARGETplus Human WEE1 siRNA (SMARTPool, cat.no. L-005050-00, Dharmacon Reagents) using Lipofectamine RNAiMAX Transfection Reagent (cat. no. 13778075, Invitrogen). WEE1 knockdown at protein level was confirmed by Western blot (α-WEE1 antibody [B-11], cat.no. sc-5285, Santa Cruz Biotechnology). After 72 hours cell viability was measured as described in Single drug screening method section. Caspase assay was performed 48 hours after treatment according to manufacturer instructions (cat.no. ab39383, Abcam).
(§6) Western blot bands were quantified using ImageJ (version 1.50b, Wayne Rasband and co., NIH). The readouts from 3 biological replicates were analyzed using R version 4.2.2 (packages ggplot2, DSS, stats) and presented as mean values with standard deviations.

SJ-GBM2 [9] = test: as above; type: cell-based; settings: Homo sapiens; SJ-GBM2, 72 hours, vincristine 0.5 nM, compared to control siRNA
Experimental: as §5, §6

[10] = test system: TP53mut SHH-MB patient-derived organoids (PDOs); test: Drug treatment assay in PDOs, summary over all three PDO models; type: cell-based; settings: Homo sapiens
Experimental: as §4, §3

[11] = test system: Trp53+/- LFS mouse model (Trp53tm1Tyj/J); settings: for Survival: Trp53+/- mice, 4-week treatment and 4-week observation period
Experimental: At the age of 6-8-weeks mice were randomly assigned into 4 treatment groups (3-4 animals/group) without blinding.
4-week treatment period was followed by 4-week observation period to monitor for drug toxicity-related symptoms. Afterwards the animals were sacrificed and organs (brain, liver, spleen and kidney) were extracted. Tissues were fixed for 48 hours in Roti®-Histofix 4 % (cat.no. P087.5, Roth) followed by dehydration in 50% Ethanol. […] For γH2AX (p-S139) staining 4 μm FFPE tissue sections were cut, deparaffinized and re-hydrated. […] Antibody- and H&E-stained specimens were evaluated by the pathologist (T.G.P.G.). Images were taken with the Leica DM3000 LED microscope (10-fold magnification) and analyzed using Fiji v.2.16.0 (Java 8) and R version 4.2.2 (packages ggplot2 and ggsignif).
At the stage of designing experiments, a power analysis was performed for BT084 and LFS_primary models using R version 4.1.0 (type I error: 5%, type II error: 20%). Survival, IVIS readout and weight was analyzed using R version 4.2.2 (packages stat, ggplot2, ggsignif, survival, survminer and stats). Images were analyzed using Fiji v.2.16.0 (Java 8) and R version 4.2.2 (packages ggplot2 and ggsignif).

LFS fibroblasts = test: Genotoxicity screen, Micronucleus Test (MNT); type: cell-based, human; design: key: MNT score = number of micronuclei / number of nuclei; settings: Cmax concentration (or concentration causing 20% decrease of viability), 120 h, median
Experimental: To evaluate genotoxicity of compounds, the Micronucleus Test (MNT)[96]^,[97] method was used. […] Next, the cells were visualized using ImageXpress Micro 4 High-Content Imaging System (Molecular Devices, LLC) and 4 images for each well were analyzed with CellProfiler version 4.1.3 (the pipeline described in the supplementary information).
The MNT score for a specific compound was calculated according to a following formula: MNTscore=(numberofmicronuclei/numberofnuclei)
Resulting MNT scores were compared to negative (DMSO) and positive (mitomycin C) control scores using Welch t-test (R version 4.2.2, packages stat, ggplot2). If scores were statistically different from positive control, then the compound was classified as non-genotoxic. If scores were statistically different from negative control, then the compound was classified as genotoxic.

SJGBM-2 and UW228-2 = test: Validation in established cell lines, Emax criterion in both cancer cell lines; type: cell-based; settings: Homo sapiens; SJGBM-2 and UW228-2, selection criterion; read-out: maximum effect (Emax) in cancer cell lines
Text: as §2

[12] = test system: caspase-3 activity in SJ-GBM2 and UW228-2; test: Caspase-3 assay (fluorometric) 48 hours after treatment; type: cell-based, human; settings: SJ-GBM2 and UW228-2, 48 hours
Experimental: as §5

[13] = Cmax from literature; ref PMID: 32635465; cited from earlier work
[14] = test system: CDK1 phosphorylation (phospho Y15) in SJ-GBM2 and UW228-2; test: Adavosertib pharmacodynamic marker (Western blot) in cell lines; type: cell-based, human; settings: adavosertib 100 nM, 300 nM for 8 and 24 hours
Text: Protein concentration of cell lysates were estimated using the Pierce BCA Protein Assay Kit (cat. no. 23225, ThermoFisher Scientific). For detecting CDK1 phosphorylation the following antibodies were used: α-CDK1 (phospho Y15) [BLR101H] (cat.no. ab275958, Abcam), α-Cdk1/Cdk2 (AN21.2) (cat.no. sc-53219, Santa Cruz Biotechnology, Inc.), α-HSP90 (cat.no. 4877, Cell Signaling Technology). Western blot bands were visualized using Amersham ECL Prime Western Blotting Detection System (cat. no. RPN2232SK, GE Healthcare) and quantified using ImageJ (version 1.50b, Wayne Rasband and co., NIH). Post analysis brightness and contrast of presented images was increased by 50%.

[15] = mean over three PDOs, metabolic activity, read-out: mean IC50
[16] = range over three PDOs, read-out: IC50 range

Row | SMILES | Median lifespan since tumor detection [4] [days] | IC50 [5] [nM] | DSS [5] | IC50 [6] [nM] | DSS [6] | IC50 [7] [nM] | DSS [7] | IC50 [10, 15] [nM] | IC50 [10, 16] [nM] | Survival [11] [%] | MNT_median (micronucleus test score) (LFS fibroblasts) | Emax (SJGBM-2 and UW228-2) [%] | Emax (UW228-2 [1]; Homo sapiens) [%] | IC50 (UW228-2 [1]; Homo sapiens) [nM] | IC50 (SJ-GBM2 [2]; Homo sapiens) [nM] | Emax (SJ-GBM2 [2]; Homo sapiens) [%] | further results
1 | Cc1cc(Nc2ncc3c(n2)N(C)CN(c2c(Cl)cccc2Cl)C3=O)ccc1C1CCN(C)CC1 [Debio 0123] |  |  |  |  |  |  |  |  |  |  |  |  |  |  |  |  | BBB penetration (orthotopic GBM model): ability to cross BBB; IC50 (UW228-2 [1]): 270 nM; IC50 (SJ-GBM2 [2]): 147 nM; interaction in combination with vinca alkaloid (synergy score) [3]: additive interaction
2 | CC[C@]1(O)C[C@H]2CN(CCc3c([nH]c4ccccc34)[C@@](C(=O)OC)(c3cc4c(cc3OC)N(C=O)[C@H]3[C@@](O)(C(=O)OC)[C@H](OC(C)=O)[C@]5(CC)C=CCN6CC[C@]43[C@@H]65)C2)C1 [Vincristine] | 20.5 | 1.38 | 54,34 | 11.9 | 16,96 | 7.24 | 22,69 | 6.8 | 1.38 to 11.9 | 100 | 2,59 | > 50 | 52.2 | 0.9 | 1.1 | 92.5 | viability at 0.0005 µM (UW228-2 [8]): 80.2%; viability at 0.0005 µM (SJ-GBM2 [9]): 62.9%; genotoxicity or organ-specific toxicities ([11]; mouse, in vivo): low to no genotoxicity or organ-specific toxicities; caspase-3 activity [12]: did not influence caspase-3 activity; Cmax [13]: 36 nM
3 | C=CCn1c(=O)c2cnc(Nc3ccc(N4CCN(C)CC4)cc3)nc2n1-c1cccc(C(C)(C)O)n1 [Adavosertib] | 9 | 117 | 17,70 | 167 | 9,53 | 215 | 8,36 | 166 | 117 to 215 | 100 | 1,44 | > 50 | 89.1 | 273 | 43.4 | 98.1 | levels of CDK1 phosphorylation [14]: reduced levels of CDK1 phosphorylation
